Structures are written as SMILES.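 Exposure lasted 48 hours, with cells grown in 96-well plates and compounds tested at five concentrations. At the GI50, growth is halved.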 Activity calls are given as the source filed them. No stated cut-off is given here; in the data, active = GI50 up to about 1.1 µM and inactive = higher.

Assay in all cases: NCI anticancer screen, dose series, 48 h
In assay [1] the test system is Hs-578T.
Assay [2] relates to BT-549.
Assay [3] concerns KM12.
Assay [4] relates to SF-268.
In assay [5] the test system is HCT-15.
The test system of assay [6] is SF-295.
In assay [7] the test system is DU-145.
The test system of assay [8] is NCI/ADR-RES.
The test system of assay [9] is RXF 393.
For assay [10], the system named is SK-OV-3.
For assay [11], the system named is HT-29.
The subject of assay [12] is SF-539.
Assay [13] concerns MDA-N.
Assay [14] has as its system A498.
Assay [15] concerns UO-31.
The subject of assay [16] is HOP-62.
Assay [17] has as its system 786-0.
The subject of assay [18] is OVCAR-8.
The subject of assay [19] is OVCAR-5.

For `CCn1c(-c2ccc(OC(C)=O)cc2)c(C)c2cc(OC(C)=O)ccc21` [ZINDOXIFENE], the GI50 in assay [1] was 13.9 µM (inactive); in assay [2] it was 29.4 µM (inactive); in [3] it was 12.9 µM (inactive); in [4] it was 16.6 µM (inactive); in [5], 3.79 µM; in assay [6], 24 µM (inactive). Also, the GI50 was 18.5 µM (inactive) in assay [7]; 24.9 µM (inactive) in [8]; 6.82 µM (inactive) in [9]; 23.1 µM (inactive) in assay [10]; 29.5 µM (inactive) in assay [11]; 15.8 µM (inactive) in [12]. In addition, the GI50 in [13] was 17.3 µM (inactive); in assay [14], 23.6 µM (inactive); in assay [15] it was 20.7 µM (inactive); in assay [16] it was 21.3 µM (inactive); in assay [17], 21.9 µM (inactive); in assay [18], 20 µM (inactive). Besides, the GI50 in [19] was 24.9 µM (inactive).
For the compound `Nc1ccc2c(c1)N(C(=O)c1cc3cc(NC(=O)c4cc5ccccc5o4)ccc3[nH]1)CC2CCl` (stereo unspecified), the GI50 in assay [1] was 0.293 µM (active); in assay [2] it was 0.164 µM (active); in assay [3], 0.115 µM (active); in assay [4], 0.0498 µM (active); in assay [5], 0.0847 µM; in assay [6], 0.0434 µM (active). In addition, the GI50 is 0.0254 µM (active) in assay [7]; 0.0332 µM (active) in assay [8]; 0.018 µM (active) in [9]; 0.128 µM (active) in [10]; 0.129 µM (active) in assay [11]; 0.0191 µM (active) in assay [12]. Also, the GI50 in [13] was 0.183 µM (active); in assay [14] it was 0.16 µM (active); in [15] it was 0.0296 µM (active); in assay [16] it was 0.138 µM (active); in assay [17], 0.0638 µM (active); in [18] it was 0.0397 µM (active). In addition, the GI50 in assay [19] is 0.114 µM (active).
On to `COc1ccc(-n2c3c(c4c(CN(C)C)c(O)ccc42)C(=O)c2ccccc2C3=O)cc1`, for which the GI50 was 30.5 µM (inactive) in assay [1]; 13.6 µM (inactive) in assay [2]; 3.2 µM (inactive) in [3]; 10.1 µM (inactive) in assay [4]; 3.1 µM in assay [5]; 14.7 µM (inactive) in assay [6]. The GI50 in assay [7] is 12.9 µM (inactive); in assay [8] it was 5.73 µM (inactive); in assay [9], 4.63 µM (inactive); in [10], 2.48 µM (inactive); in assay [11], 2.19 µM (inactive); in assay [12] it was 2.04 µM (inactive). The GI50 in assay [13] was 4.62 µM (inactive); in assay [14], 1.21 µM (inactive); in assay [15] it was 1.96 µM (inactive); in assay [16], 2.02 µM (inactive); in assay [17] it was 1.89 µM (inactive); in [18], 3.26 µM (inactive). Moreover, the GI50 in assay [19] is 4.92 µM (inactive).
As for `Oc1c(Cl)cc(CN(Cc2cc(Cl)c(O)c(Cl)c2)C2CCCCC2)cc1Cl`, the GI50 was > 100 µM (inactive) in [1]; > 100 µM (inactive) in assay [2]; > 100 µM (inactive) in [3]; > 100 µM (inactive) in assay [4]; > 100 µM in assay [5]; > 100 µM (inactive) in [6]. Also, the GI50 in assay [7], in [8], in assay [9], in assay [10], in assay [11] and in assay [12] was > 100 µM (inactive) in each case. Also, the GI50 in assay [13], in [14], in assay [15], in [16], in [17] and in assay [18] was > 100 µM (inactive) each time. Further, the GI50 in assay [19] is > 100 µM (inactive).
